In PubChem BioAssay AID248 (DTP/NCI, 2004):
Where “and” joins values, the source holds several entries; their conditions need not be identical. Identical values can stand only once. Inconclusive results and toxic doses are left out. Cut-off read from the data, not from the text of the source: active = T/C of 150% or more; inactive = T/C below 125%. Square brackets hold non-standard residues; d marks the D form. Peptide text beside a SMILES is read from it. * marks the point of attachment. ξ: configuration not given here. ξF = NC(Cc1ccccc1)C(=O)O; Cbz = O=C(OCc1ccccc1)*; OBn = c1ccc(CO*)cc1

Test system: L1210 leukemia ip in BDF1 mice, survival T/C
Assay: NCI In Vivo Anticancer Drug Screen. Data for tumor model L1210 Leukemia (intraperitoneal) in B6D2F1 (BDF1) mice
Conditions: endpoint: mean survival time, higher = longer survival
How it was run: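 Read-out is survival time, reported as the treated-group measurement over the vehicle-control measurement.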

[1] = dose: 100.0 mg/kg/injection, schedule: Q01DX001 (ip), vehicle: saline
[2] = dose: 100.0 mg/kg/injection, schedule: Q01DX009 (ip), vehicle: saline with Tween-80
[3] = dose: 100.0 mg/kg/injection, schedule: Q04DX003 (ip), vehicle: saline with Tween-80
[4] = dose: 100.0 mg/kg/injection, schedule: Q04DX003 (ip), vehicle: saline
[5] = dose: 200.0 mg/kg/injection, schedule: Q01DX001 (ip), vehicle: saline
[6] = dose: 200.0 mg/kg/injection, schedule: Q01DX009 (ip), vehicle: saline with Tween-80
[7] = dose: 200.0 mg/kg/injection, schedule: Q04DX003 (ip), vehicle: saline with Tween-80
[8] = dose: 200.0 mg/kg/injection, schedule: Q04DX003 (ip), vehicle: saline
[9] = dose: 400.0 mg/kg/injection, schedule: Q01DX001 (ip), vehicle: saline
[10] = dose: 400.0 mg/kg/injection, schedule: Q01DX009 (ip), vehicle: saline with Tween-80
[11] = dose: 400.0 mg/kg/injection, schedule: Q04DX003 (ip), vehicle: saline
[12] = dose: 100.0 mg/kg/injection, schedule: Q04DX003 (ip), vehicle: Klucel (hydroxypropylcellulose) (HPC)
[13] = dose: 200.0 mg/kg/injection, schedule: Q04DX003 (ip), vehicle: Klucel (hydroxypropylcellulose) (HPC)
[14] = dose: 400.0 mg/kg/injection, schedule: Q04DX003 (ip), vehicle: Klucel (hydroxypropylcellulose) (HPC)
[15] = dose: 400.0 mg/kg/injection, schedule: Q04DX003 (ip), vehicle: saline with Tween-80
[16] = dose: 100.0 mg/kg/injection, schedule: Q04DX002 (ip), vehicle: Klucel (hydroxypropylcellulose) (HPC)
[17] = dose: 200.0 mg/kg/injection, schedule: Q04DX002 (ip), vehicle: Klucel (hydroxypropylcellulose) (HPC)
[18] = dose: 400.0 mg/kg/injection, schedule: Q04DX002 (ip), vehicle: Klucel (hydroxypropylcellulose) (HPC)
[19] = dose: 100.0 mg/kg/injection, schedule: Q01DX009 (ip), vehicle: Klucel (hydroxypropylcellulose) (HPC)
[20] = dose: 200.0 mg/kg/injection, schedule: Q01DX009 (ip), vehicle: Klucel (hydroxypropylcellulose) (HPC)
[21] = dose: 400.0 mg/kg/injection, schedule: Q01DX009 (ip), vehicle: Klucel (hydroxypropylcellulose) (HPC)

Measured: T/C

CC(C)(C)C(=O)CC(=O)C(C)(C)C
inactive: [1] 101 % of control | dose: 100.0 mg/kg/injection, schedule: Q01DX009 (ip), vehicle: other 92 % of control | [2] 91 % of control | dose: 100.0 mg/kg/injection, schedule: Q04DX002 (ip), vehicle: other 102 % of control | dose: 100.0 mg/kg/injection, schedule: Q04DX002 (ip), vehicle: saline 116 % of control | [3] 103 % of control | [4] 98 % of control | [5] 110 % of control | dose: 200.0 mg/kg/injection, schedule: Q01DX009 (ip), vehicle: other 97 % of control | [6] 97 % of control | dose: 200.0 mg/kg/injection, schedule: Q04DX002 (ip), vehicle: other 97 % of control | dose: 200.0 mg/kg/injection, schedule: Q04DX002 (ip), vehicle: saline 101 % of control | [7] 103 % of control | [8] 103 % of control | [9] 102 % of control | dose: 400.0 mg/kg/injection, schedule: Q01DX009 (ip), vehicle: other 97 % of control | [10] 91 % of control | dose: 400.0 mg/kg/injection, schedule: Q04DX002 (ip), vehicle: other 102 % of control | dose: 400.0 mg/kg/injection, schedule: Q04DX002 (ip), vehicle: saline 108 % of control | [11] 95 % of control

CCCCNC(=O)Nc1ccc(C(=O)O)c(O)c1
inactive: [12] 100 % of control | [13] 94 % of control | [14] 93 % of control

CCCCC1(C(C)C)C(=O)NC(=O)N(C)C1=O (centres undefined)
inactive: dose: 75.0 mg/kg/injection, schedule: Q01DX001 (ip), vehicle: saline 100 % of control | dose: 150.0 mg/kg/injection, schedule: Q01DX001 (ip), vehicle: saline 105 % of control

Cc1cc2c(cc1C)=NC(=Nc1nc(O)c(O)[nH]1)N=2
inactive: [12] 98 % of control | [13] 96 % of control | [14] 91 % of control

Clc1ccc(/C=N\Nc2c3ccccc3nc3ccccc23)cc1Cl
inactive: [1] 97 % of control | [5] 94 % of control | [9] 111 % of control

CC(=O)OC1COC(SC(=N)N)C(OC(C)=O)C1OC(C)=O (centres undefined)
inactive: dose: 75.0 mg/kg/injection, schedule: Q01DX001 (ip), vehicle: water 101 % of control and 104 % of control | dose: 150.0 mg/kg/injection, schedule: Q01DX001 (ip), vehicle: water 104 % of control and 103 % of control | dose: 300.0 mg/kg/injection, schedule: Q01DX001 (ip), vehicle: water 97 % of control and 95 % of control

O=S(=O)(Nc1nccs1)c1ccc(Nc2ccnc3cc(Cl)ccc23)cc1
inactive: [1] 93 % of control | [5] 95 % of control | [9] 87 % of control

Cc1nc2c(Cl)cc(Cl)cc2s1
inactive: dose: 100.0 mg/kg/injection, schedule: Q01DX001 (ip), vehicle: acetone 100 % of control | [4] 95 % of control | dose: 200.0 mg/kg/injection, schedule: Q01DX001 (ip), vehicle: acetone 106 % of control | [8] 90 % of control | dose: 400.0 mg/kg/injection, schedule: Q01DX001 (ip), vehicle: acetone 102 % of control | [11] 92 % of control

O=C(CNC(=O)OCc1ccccc1)NC(Cc1ccccc1)C(=O)OCc1ccccc1 (stereo not drawn) (Cbz-Gly-[ξF]-OBn)
inactive: [3] 101 % of control | [7] 103 % of control | [15] 95 % of control

C=CCCCCCCCCC(=O)N/N=C(/C)c1ccc(C)cc1
inactive: [16] 103 % of control | [17] 118 % of control | [18] 92 % of control

Nc1ncnc2c1nnn2CCCCCC(=O)O
inactive: [3] 100 % of control | [7] 101 % of control | [15] 97 % of control

CC(=Nc1ccc(NC(=O)c2ccc(C(=O)Nc3ccc(N=C(C)Nc4ccccc4)cc3)cc2)cc1)Nc1ccccc1
inactive: dose: 15.0 mg/kg/injection, schedule: Q01DX Z (ip), vehicle: saline 93 % of control | dose: 30.0 mg/kg/injection, schedule: Q01DX Z (ip), vehicle: saline 92 % of control | dose: 60.0 mg/kg/injection, schedule: Q01DX Z (ip), vehicle: saline 97 % of control | dose: 120.0 mg/kg/injection, schedule: Q01DX Z (ip), vehicle: saline 93 % of control

CC1CN(Cc2ccc([N+](=O)[O-])cc2)CC(C)N1N (centres undefined)
inactive: dose: 50.0 mg/kg/injection, schedule: Q01DX005 (ip), vehicle: saline with Tween-80 98 % of control | dose: 100.0 mg/kg/injection, schedule: Q01DX005 (ip), vehicle: saline with Tween-80 103 % of control

COc1ccc(OCCOC(=O)Nc2cccc(C(F)(F)F)c2)cc1
inactive: [2] 109 % of control | [6] 96 % of control | [10] 91 % of control

CS(=O)(=O)Nc1ccc(NS(C)(=O)=O)c(SCc2ccccc2)c1
inactive: dose: 100.0 mg/kg/injection, schedule: Q01DX001 (ip), vehicle: Klucel (hydroxypropylcellulose) (HPC) 95 % of control | [12] 96 % of control | dose: 200.0 mg/kg/injection, schedule: Q01DX001 (ip), vehicle: Klucel (hydroxypropylcellulose) (HPC) 98 % of control | [13] 89 % of control | dose: 400.0 mg/kg/injection, schedule: Q01DX001 (ip), vehicle: Klucel (hydroxypropylcellulose) (HPC) 95 % of control | [14] 102 % of control

C/C=C/C(=O)Nc1cccc(C)c1C
inactive: [19] 93 % of control and 95 % of control | [20] 100 % of control | [21] 92 % of control

CCCCCCC[As](=O)(O)O
inactive: dose: 6.25 mg/kg/injection, schedule: Q01DX009 (ip), vehicle: Klucel (hydroxypropylcellulose) (HPC) 99 % of control | dose: 12.5 mg/kg/injection, schedule: Q01DX009 (ip), vehicle: Klucel (hydroxypropylcellulose) (HPC) 101 % of control

CC1=N/C(=C/c2ccc([N+](=O)[O-])s2)C(=O)O1
inactive: dose: 50.0 mg/kg/injection, schedule: Q04DX002 (ip), vehicle: Klucel (hydroxypropylcellulose) (HPC) 112 % of control | [16] 97 % of control | [17] 95 % of control and 115 % of control | [18] 98 % of control

BrC(Br)c1ccc2ccccc2n1
inactive: [19] 89 % of control | [12] 95 % of control | [20] 94 % of control | [13] 95 % of control | [21] 94 % of control | [14] 97 % of control

N#CC1(Nc2ccc(-c3ccc(Cl)cc3)cc2)CCCC1
inactive: dose: 50.0 mg/kg/injection, schedule: Q01DX001 (ip), vehicle: carboxymethylcellulose (CMC) 91 % of control | dose: 100.0 mg/kg/injection, schedule: Q01DX001 (ip), vehicle: carboxymethylcellulose (CMC) 91 % of control | dose: 200.0 mg/kg/injection, schedule: Q01DX001 (ip), vehicle: carboxymethylcellulose (CMC) 87 % of control

NC1CCC(CC(=O)O)CC1 (centres undefined)
inactive: [1] 105 % of control | [5] 89 % of control | [9] 96 % of control

Nc1ncnc2c1ncn2CCCCl
inactive: dose: 50.0 mg/kg/injection, schedule: Q01DX009 (ip), vehicle: saline 100 % of control | dose: 100.0 mg/kg/injection, schedule: Q01DX009 (ip), vehicle: saline 100 % of control | [4] 90 % of control | dose: 200.0 mg/kg/injection, schedule: Q01DX009 (ip), vehicle: saline 92 % of control | [8] 106 % of control

O=[N+]([O-])c1ccc(OCCCOc2ccccc2)cc1
inactive: [19] 112 % of control | [12] 97 % of control | [20] 101 % of control | [13] 103 % of control | [21] 98 % of control | [14] 100 % of control

COc1ccc(NCC(O)CN2CCCCC2)cc1 (centres undefined)
inactive: [1] 94 % of control

CC(=O)OCC(=O)[C@@]1(O)CC[C@H]2[C@@H]3CCC4=CC(=O)C=C[C@]4(C)[C@H]3[C@@H](O)C[C@@]21C
inactive: dose: 50.0 mg/kg/injection, schedule: Q04DX003 (sc), vehicle: steriod suspending solution 97 % of control | dose: 100.0 mg/kg/injection, schedule: Q04DX003 (sc), vehicle: steriod suspending solution 94 % of control | dose: 200.0 mg/kg/injection, schedule: Q04DX003 (sc), vehicle: steriod suspending solution 96 % of control | dose: 400.0 mg/kg/injection, schedule: Q04DX003 (sc), vehicle: steriod suspending solution 106 % of control
